Experimental data taken from article PMC6437697 (Journal of Medicinal Chemistry, 2019).

Key:
Assay in all cases: KINOMEscan
Format in all cases: binding
Details in all cases: read-out: % control activity remaining
IKK-beta = target: T1, IKK-beta (Homo sapiens, UniProt O14920)
T1 construct: purchased Eurofins DiscoverX KINOMEscan
T1 sequence (O14920 1-756): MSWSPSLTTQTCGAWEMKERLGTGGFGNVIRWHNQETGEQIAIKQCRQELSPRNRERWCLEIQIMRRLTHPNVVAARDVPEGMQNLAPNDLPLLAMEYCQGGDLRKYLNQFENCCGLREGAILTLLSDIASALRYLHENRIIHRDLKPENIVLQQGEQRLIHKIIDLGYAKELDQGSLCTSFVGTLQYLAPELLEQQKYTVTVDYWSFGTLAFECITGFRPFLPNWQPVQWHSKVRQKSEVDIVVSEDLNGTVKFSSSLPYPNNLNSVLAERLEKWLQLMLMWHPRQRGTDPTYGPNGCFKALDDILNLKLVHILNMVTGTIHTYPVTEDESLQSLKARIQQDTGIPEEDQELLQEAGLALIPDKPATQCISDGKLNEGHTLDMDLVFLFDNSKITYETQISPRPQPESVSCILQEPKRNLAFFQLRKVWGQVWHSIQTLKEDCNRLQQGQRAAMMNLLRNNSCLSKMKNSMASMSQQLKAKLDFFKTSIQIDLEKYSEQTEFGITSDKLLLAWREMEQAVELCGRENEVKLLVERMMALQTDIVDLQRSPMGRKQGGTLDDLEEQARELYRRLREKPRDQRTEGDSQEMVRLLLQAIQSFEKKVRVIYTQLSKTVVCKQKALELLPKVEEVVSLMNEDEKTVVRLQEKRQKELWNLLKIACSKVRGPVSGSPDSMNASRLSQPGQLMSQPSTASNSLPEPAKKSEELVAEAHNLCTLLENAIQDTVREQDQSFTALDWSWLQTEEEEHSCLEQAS

STK16 = target: T2, STK16 (Homo sapiens, UniProt O75716)
T2 construct: purchased Eurofins DiscoverX KINOMEscan

MEK1 = target: T3, MEK1 (Homo sapiens, UniProt Q02750)
T3 construct: purchased Eurofins DiscoverX KINOMEscan

CSNK1A1 = target: T4, CSNK1A1 (Homo sapiens, UniProt P48729)
T4 construct: purchased Eurofins DiscoverX KINOMEscan

PIK3CA = target: T5, PIK3CA (Homo sapiens, UniProt P42336)
T5 construct: purchased Eurofins DiscoverX KINOMEscan

TIE2 = target: T6, TIE2 (Homo sapiens, UniProt Q02763)
T6 construct: purchased Eurofins DiscoverX KINOMEscan

MLK1 = target: T7, MLK1 (Homo sapiens, UniProt P80192)
T7 construct: purchased Eurofins DiscoverX KINOMEscan

PIK3CA(E545A) = target: T8, PIK3CA(E545A) (Homo sapiens, UniProt P42336, E545A)
T8 construct: purchased Eurofins DiscoverX KINOMEscan

PIK3CD = target: T9, PIK3CD (Homo sapiens, UniProt O00329)
T9 construct: purchased Eurofins DiscoverX KINOMEscan
T9 sequence (O00329 1-1044): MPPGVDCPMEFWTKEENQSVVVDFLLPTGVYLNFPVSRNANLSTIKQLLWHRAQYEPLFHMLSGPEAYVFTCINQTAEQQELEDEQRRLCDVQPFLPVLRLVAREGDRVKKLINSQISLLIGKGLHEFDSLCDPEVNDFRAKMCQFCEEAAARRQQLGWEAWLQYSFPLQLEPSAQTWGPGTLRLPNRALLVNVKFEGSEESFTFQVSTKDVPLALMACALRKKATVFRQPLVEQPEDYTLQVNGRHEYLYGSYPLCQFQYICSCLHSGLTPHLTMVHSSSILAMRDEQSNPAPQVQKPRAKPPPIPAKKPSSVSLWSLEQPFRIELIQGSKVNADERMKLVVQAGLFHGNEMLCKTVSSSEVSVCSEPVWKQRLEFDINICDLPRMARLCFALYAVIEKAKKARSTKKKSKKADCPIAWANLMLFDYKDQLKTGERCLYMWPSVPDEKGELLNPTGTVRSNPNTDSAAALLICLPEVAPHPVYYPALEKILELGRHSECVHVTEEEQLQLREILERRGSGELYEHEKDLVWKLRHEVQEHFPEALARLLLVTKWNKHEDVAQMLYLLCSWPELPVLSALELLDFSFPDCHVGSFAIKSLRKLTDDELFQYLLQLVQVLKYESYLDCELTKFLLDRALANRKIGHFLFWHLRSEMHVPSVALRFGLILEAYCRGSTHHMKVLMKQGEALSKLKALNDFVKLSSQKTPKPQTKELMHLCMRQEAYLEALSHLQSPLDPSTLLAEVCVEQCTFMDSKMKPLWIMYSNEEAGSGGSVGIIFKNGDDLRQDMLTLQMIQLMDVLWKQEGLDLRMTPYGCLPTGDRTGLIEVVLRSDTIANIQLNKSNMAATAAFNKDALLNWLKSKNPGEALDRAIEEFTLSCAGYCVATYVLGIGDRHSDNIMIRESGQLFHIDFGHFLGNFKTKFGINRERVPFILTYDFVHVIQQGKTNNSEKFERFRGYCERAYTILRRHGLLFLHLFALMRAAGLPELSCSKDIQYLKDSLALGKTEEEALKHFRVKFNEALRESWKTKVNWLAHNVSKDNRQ

PAK1 = target: T10, PAK1 (Homo sapiens, UniProt Q13153)
T10 construct: purchased Eurofins DiscoverX KINOMEscan

AKT2 = target: T11, AKT2 (Homo sapiens, UniProt P31751)
T11 construct: purchased Eurofins DiscoverX KINOMEscan

[1] = target: T12, RSK3(Kin.Dom.2-C-terminal) (Homo sapiens, UniProt Q15349)
T12 construct: RSK3(Kin.Dom.2-C-terminal); purchased Eurofins DiscoverX KINOMEscan

S6K1 = target: T13, S6K1 (Homo sapiens, UniProt P23443)
T13 construct: purchased Eurofins DiscoverX KINOMEscan
T13 sequence (P23443 whole entry): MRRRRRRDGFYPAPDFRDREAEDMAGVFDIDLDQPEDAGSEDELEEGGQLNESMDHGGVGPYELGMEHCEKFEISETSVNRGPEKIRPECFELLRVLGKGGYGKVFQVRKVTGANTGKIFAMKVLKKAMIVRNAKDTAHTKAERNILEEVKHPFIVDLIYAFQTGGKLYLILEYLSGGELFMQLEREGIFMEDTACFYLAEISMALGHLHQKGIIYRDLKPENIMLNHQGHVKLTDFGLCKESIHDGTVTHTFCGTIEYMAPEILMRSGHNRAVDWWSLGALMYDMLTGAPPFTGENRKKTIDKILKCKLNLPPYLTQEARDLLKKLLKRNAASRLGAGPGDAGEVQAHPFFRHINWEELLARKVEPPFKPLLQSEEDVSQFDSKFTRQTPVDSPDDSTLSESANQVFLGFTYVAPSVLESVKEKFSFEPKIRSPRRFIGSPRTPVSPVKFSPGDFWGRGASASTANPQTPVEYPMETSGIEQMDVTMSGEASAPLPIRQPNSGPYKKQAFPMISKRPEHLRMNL

T2 sequence (O75716 whole entry): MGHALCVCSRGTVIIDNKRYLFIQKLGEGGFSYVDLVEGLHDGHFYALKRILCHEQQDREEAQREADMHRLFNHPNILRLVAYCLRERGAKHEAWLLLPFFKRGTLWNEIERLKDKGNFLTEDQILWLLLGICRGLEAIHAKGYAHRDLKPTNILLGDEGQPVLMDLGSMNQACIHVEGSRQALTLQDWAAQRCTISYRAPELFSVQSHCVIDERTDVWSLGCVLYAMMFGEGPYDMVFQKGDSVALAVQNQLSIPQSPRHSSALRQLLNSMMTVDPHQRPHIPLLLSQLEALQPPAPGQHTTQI
T11 sequence (P31751 whole entry): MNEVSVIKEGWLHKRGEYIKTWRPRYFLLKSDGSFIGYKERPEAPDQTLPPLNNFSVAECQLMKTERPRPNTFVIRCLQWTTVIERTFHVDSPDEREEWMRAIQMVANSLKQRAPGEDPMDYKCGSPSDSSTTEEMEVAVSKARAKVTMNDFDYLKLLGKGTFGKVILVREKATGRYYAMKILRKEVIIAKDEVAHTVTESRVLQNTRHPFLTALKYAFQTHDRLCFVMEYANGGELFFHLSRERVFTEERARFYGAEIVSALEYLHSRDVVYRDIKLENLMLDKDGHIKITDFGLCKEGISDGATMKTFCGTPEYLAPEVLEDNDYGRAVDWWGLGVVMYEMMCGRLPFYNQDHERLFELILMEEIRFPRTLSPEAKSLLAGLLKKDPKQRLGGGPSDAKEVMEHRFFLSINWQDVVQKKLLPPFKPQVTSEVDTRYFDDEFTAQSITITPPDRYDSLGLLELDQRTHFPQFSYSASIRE
T7 sequence (P80192 whole entry): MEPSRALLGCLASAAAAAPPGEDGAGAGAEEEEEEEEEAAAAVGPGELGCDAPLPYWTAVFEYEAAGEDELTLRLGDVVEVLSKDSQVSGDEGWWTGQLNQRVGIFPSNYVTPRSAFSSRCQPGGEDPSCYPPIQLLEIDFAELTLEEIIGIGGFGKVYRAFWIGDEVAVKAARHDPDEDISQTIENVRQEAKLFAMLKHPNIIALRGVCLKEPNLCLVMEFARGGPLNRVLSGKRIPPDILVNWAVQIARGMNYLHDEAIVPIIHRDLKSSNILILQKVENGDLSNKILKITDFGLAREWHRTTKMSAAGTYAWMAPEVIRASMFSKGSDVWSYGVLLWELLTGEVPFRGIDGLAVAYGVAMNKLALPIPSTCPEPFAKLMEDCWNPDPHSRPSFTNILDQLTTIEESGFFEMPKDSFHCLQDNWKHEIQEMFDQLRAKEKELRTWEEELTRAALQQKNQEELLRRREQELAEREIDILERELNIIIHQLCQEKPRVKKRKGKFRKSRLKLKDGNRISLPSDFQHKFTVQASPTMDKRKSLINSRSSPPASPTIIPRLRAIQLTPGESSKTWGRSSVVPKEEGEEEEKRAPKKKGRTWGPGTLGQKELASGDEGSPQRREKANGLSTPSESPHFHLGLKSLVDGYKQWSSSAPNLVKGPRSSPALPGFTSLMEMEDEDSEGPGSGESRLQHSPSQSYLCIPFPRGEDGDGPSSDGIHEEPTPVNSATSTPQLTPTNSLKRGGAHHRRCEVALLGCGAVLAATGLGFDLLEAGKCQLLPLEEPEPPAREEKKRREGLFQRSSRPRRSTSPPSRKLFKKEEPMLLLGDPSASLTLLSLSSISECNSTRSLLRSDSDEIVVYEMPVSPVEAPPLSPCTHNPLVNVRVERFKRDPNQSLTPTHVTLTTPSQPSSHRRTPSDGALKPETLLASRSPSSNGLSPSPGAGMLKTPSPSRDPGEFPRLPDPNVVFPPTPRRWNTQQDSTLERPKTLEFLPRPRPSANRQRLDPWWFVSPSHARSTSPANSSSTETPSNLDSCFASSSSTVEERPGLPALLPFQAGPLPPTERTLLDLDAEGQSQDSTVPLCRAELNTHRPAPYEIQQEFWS
T10 sequence (Q13153 whole entry): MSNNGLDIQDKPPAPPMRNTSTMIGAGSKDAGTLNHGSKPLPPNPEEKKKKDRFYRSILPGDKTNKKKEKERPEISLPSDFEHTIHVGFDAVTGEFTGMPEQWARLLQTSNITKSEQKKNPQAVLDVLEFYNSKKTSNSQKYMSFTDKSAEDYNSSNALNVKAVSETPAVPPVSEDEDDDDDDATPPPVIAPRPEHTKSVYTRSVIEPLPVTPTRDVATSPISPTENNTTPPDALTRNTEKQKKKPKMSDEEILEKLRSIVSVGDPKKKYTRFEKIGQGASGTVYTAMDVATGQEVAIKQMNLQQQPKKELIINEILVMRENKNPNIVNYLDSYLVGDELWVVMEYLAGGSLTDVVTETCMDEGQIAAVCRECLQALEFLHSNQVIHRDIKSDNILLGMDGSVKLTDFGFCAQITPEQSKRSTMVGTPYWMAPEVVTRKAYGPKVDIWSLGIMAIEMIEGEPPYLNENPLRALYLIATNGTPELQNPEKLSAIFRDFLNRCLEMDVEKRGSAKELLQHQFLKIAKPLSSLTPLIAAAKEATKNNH
T6 sequence (Q02763 23-1124): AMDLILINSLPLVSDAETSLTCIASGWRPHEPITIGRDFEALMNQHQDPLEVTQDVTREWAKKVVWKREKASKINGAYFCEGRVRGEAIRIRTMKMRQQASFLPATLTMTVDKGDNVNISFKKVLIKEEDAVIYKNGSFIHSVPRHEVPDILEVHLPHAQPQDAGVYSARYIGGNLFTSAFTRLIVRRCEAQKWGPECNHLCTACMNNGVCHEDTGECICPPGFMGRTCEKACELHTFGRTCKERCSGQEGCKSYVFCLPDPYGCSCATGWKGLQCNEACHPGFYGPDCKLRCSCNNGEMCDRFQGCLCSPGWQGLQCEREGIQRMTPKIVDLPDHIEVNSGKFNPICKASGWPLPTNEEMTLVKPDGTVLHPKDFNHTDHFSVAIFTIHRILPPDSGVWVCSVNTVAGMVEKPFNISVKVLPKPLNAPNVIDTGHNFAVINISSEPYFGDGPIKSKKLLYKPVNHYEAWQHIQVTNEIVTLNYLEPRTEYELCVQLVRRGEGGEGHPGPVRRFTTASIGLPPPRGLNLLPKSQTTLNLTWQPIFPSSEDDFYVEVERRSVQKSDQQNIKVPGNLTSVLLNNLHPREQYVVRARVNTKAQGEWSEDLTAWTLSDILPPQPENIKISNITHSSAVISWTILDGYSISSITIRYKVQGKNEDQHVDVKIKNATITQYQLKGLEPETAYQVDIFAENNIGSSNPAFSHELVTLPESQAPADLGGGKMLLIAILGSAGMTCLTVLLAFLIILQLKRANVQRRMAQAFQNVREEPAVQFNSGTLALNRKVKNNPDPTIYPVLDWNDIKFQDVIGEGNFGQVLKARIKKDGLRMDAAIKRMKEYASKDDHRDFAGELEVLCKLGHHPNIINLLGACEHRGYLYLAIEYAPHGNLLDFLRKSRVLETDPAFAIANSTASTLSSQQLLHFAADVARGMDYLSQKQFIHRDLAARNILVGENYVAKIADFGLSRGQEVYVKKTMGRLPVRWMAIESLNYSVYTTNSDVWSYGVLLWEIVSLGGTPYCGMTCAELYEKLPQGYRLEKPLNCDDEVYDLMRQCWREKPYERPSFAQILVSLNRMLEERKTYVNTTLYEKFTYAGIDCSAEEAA
T12 sequence (Q15349 415-672 limits assumed): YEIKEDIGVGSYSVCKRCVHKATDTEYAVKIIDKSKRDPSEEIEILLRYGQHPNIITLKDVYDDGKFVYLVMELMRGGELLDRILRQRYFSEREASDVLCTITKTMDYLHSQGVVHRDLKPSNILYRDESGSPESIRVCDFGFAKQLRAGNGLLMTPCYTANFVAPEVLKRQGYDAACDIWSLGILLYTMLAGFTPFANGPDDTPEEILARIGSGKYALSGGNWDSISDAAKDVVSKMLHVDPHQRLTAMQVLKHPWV
T3 sequence (Q02750 whole entry): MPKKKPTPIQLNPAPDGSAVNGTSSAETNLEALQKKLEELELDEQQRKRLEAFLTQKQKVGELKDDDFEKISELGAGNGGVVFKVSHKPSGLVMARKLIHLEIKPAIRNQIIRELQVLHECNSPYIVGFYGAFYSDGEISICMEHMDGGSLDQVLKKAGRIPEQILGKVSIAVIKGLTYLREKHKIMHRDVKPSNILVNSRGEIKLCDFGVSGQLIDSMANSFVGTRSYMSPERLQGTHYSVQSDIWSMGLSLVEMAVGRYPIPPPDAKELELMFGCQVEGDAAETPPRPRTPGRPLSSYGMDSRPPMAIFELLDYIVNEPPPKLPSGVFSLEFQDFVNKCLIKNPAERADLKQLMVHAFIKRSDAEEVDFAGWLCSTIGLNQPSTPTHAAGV

Row | Structure (SMILES) | remaining binding at 1 µM (IKK-beta) [%] | remaining binding at 1 µM (STK16) [%] | remaining binding at 1 µM (MEK1) [%] | remaining binding at 1 µM (CSNK1A1) [%] | remaining binding at 1 µM (PIK3CA) [%] | remaining binding at 1 µM (TIE2) [%] | remaining binding at 1 µM (MLK1) [%] | remaining binding at 1 µM (PIK3CA(E545A)) [%] | remaining binding at 1 µM (PIK3CD) [%] | remaining binding at 1 µM (PAK1) [%] | remaining binding at 1 µM (AKT2) [%] | remaining binding at 1 µM [1] [%] | remaining binding at 1 µM (S6K1) [%]
1 | Clc1cc(NCC2CC2)c2ncc(-c3ccc4[nH]ncc4c3)n2n1 [compound 2, 6-Chloro-N-(cyclopropylmethyl)-3-(1H-indazol-5-yl)imidazo[1,2-b]pyridazin-8-amine] | 83 | 100 | 95 | 100 | 72 | 78 | 85 | 88 | 92 | 98 | 99 | 100 | 90
2 | O=C(CN1CCOCC1)N[C@H]1CC[C@H](Nc2cc(Cl)nn3c(-c4ccc5[nH]ncc5c4)cnc23)CC1 [compound 26] | 94 | 83 | 93 | 58 | 97 | 89 | 100 | 100 | 90 | 99 | 99 | 94 | 88
3 | CN1CCC(CNc2cc(Cl)nn3c(-c4cc5nc(Nc6ccccc6)[nH]c5cc4F)cnc23)CC1 [compound 31, 6-Chloro-3-(6-fluoro-2-(phenylamino)-1H-benzo[d]imidazol-5-yl)-N-((1-methylpiperidin-4-yl)methyl)imidazo[1,2-b]pyridazin-8-amine] | 90 | 96 | 80 | 97 | 90 | 91 | 93 | 78 | 75 | 89 | 80 | 80 | 95
